Experimental data published in BindingDB's records for doi:10.3109/14756366.2011.555944 (Aristotle University of Thessaloniki, 2011).

Target: T1, Seed linoleate 13S-lipoxygenase-1 (Glycine max, UniProt P08170)
T1 sequence (P08170 whole entry): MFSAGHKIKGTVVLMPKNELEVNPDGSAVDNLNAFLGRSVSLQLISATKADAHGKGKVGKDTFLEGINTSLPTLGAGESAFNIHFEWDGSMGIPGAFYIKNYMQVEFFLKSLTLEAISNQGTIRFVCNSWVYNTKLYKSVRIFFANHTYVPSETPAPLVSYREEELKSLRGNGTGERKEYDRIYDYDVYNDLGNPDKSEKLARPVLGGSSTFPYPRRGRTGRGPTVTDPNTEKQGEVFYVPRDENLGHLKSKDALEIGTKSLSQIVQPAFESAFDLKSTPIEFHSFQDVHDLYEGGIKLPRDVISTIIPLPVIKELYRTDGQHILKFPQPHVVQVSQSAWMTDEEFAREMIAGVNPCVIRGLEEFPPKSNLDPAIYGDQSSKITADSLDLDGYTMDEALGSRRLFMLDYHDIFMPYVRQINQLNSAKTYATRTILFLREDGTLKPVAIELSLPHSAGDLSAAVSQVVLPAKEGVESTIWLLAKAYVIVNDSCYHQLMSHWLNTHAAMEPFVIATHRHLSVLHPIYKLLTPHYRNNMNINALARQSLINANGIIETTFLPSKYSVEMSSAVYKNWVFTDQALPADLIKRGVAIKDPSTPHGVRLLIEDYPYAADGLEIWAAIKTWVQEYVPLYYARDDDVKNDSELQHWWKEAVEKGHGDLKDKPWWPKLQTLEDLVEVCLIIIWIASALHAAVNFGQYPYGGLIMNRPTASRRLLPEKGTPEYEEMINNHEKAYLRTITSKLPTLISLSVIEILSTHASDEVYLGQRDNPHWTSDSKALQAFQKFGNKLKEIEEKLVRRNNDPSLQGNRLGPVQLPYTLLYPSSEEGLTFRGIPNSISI
Assay: In Vitro LOX Inhibition Assay
Conditions: 25 °C

IC50	SMILES
180 µM	Cc1cc(=O)oc2c3c(ccc12)OCC=CC3 [4-Methyl-8,11-dihydro-2H-oxepino[2,3-h]chromen-2-one (7b)]
310 µM	O=c1ccc2ccc3c(c2o1)CC=CCO3 [8,11-Dihydro-2H-oxepino[2,3-h]chromen-2-one (7a)]
